Several values for one entry are separate records, joined by “and”; a condition that tells them apart may be missing. Equal values may be shown once. Inconclusive results and toxic doses are left out.
Tested on: P388 leukemia ip, CD2F1 mice, survival T/C
Assay: NCI In Vivo Anticancer Drug Screen. Data for tumor model P388 Leukemia (intraperitoneal) in CD2F1 (CDF1) mice
Conditions: endpoint: median survival time, higher = longer survival
Method in brief: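 Mice carrying the transplanted tumor received test compound or vehicle. Survival was recorded in each group, and the value is the treated-group measurement divided by that of the vehicle-treated control group.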

[1] = dose: 50.0 mg/kg/injection, schedule: Q01DX009 (ip), vehicle: saline with Tween-80
[2] = dose: 100.0 mg/kg/injection, schedule: Q01DX009 (ip), vehicle: saline with Tween-80
[3] = dose: 200.0 mg/kg/injection, schedule: Q01DX009 (ip), vehicle: saline with Tween-80

Structure (SMILES): Cc1cc(NC(=S)SCc2ccc3c(c2)OCO3)ccc1Br
- T/C (dose: 25.0 mg/kg/injection, schedule: Q01DX009 (ip), vehicle: Klucel (hydroxypropylcellulose) (HPC)): 102 % of control and 107 % of control
- T/C (dose: 25.0 mg/kg/injection, schedule: Q01DX009 (ip), vehicle: saline with Tween-80): 96 % of control
- T/C (dose: 50.0 mg/kg/injection, schedule: Q01DX009 (ip), vehicle: Klucel (hydroxypropylcellulose) (HPC)): 107 % of control and 115 % of control and 116 % of control
- T/C [1]: 91 % of control
- T/C (dose: 50.0 mg/kg/injection, schedule: Q01DX009 (ip), vehicle: suspension in saline): 93 % of control
- T/C (dose: 100.0 mg/kg/injection, schedule: Q01DX009 (ip), vehicle: Klucel (hydroxypropylcellulose) (HPC)): 107 % of control and 115 % of control and 118 % of control
- T/C [2]: 100 % of control
- T/C (dose: 100.0 mg/kg/injection, schedule: Q01DX009 (ip), vehicle: suspension in saline): 104 % of control
- T/C (dose: 200.0 mg/kg/injection, schedule: Q01DX009 (ip), vehicle: Klucel (hydroxypropylcellulose) (HPC)): 107 % of control
- T/C [3]: 100 % of control
- T/C (dose: 200.0 mg/kg/injection, schedule: Q01DX009 (ip), vehicle: suspension in saline): 93 % of control

Structure (SMILES): Cc1ccc[n+](CCC(N)=O)c1
- T/C (dose: 100.0 mg/kg/injection, schedule: Q04DX003 (ip), vehicle: saline): 100 % of control
- T/C (dose: 200.0 mg/kg/injection, schedule: Q04DX003 (ip), vehicle: saline): 100 % of control
- T/C (dose: 400.0 mg/kg/injection, schedule: Q04DX003 (ip), vehicle: saline): 95 % of control

Structure (SMILES): O=C(NC1CCCCC1NC(=O)C12CC3CC(CC(C3)C1)C2)C12CC3CC(CC(C3)C1)C2 (configuration not stated)
- T/C (dose: 6.0 mg/kg/injection, schedule: Q01DX005 (ip), vehicle: Klucel (hydroxypropylcellulose) (HPC)): 95 % of control
- T/C (dose: 12.0 mg/kg/injection, schedule: Q01DX005 (ip), vehicle: Klucel (hydroxypropylcellulose) (HPC)): 88 % of control
- T/C (dose: 50.0 mg/kg/injection, schedule: Q01DX005 (ip), vehicle: Klucel (hydroxypropylcellulose) (HPC)): 88 % of control
- T/C (dose: 200.0 mg/kg/injection, schedule: Q01DX005 (ip), vehicle: Klucel (hydroxypropylcellulose) (HPC)): 92 % of control

Structure (SMILES): CCCCCC(CN1CCOCC1)C(=O)/C=C/c1ccccc1 (configuration not stated)
- T/C [1]: 102 % of control
- T/C [2]: 102 % of control
- T/C [3]: 101 % of control

Structure (SMILES): CC(C)OC(=O)NN(C(=O)OC(C)C)N(C)C
- T/C (dose: 60.0 mg/kg/injection, schedule: Q01DX005 (ip), vehicle: Klucel (hydroxypropylcellulose) (HPC)): 100 % of control
- T/C (dose: 120.0 mg/kg/injection, schedule: Q01DX005 (ip), vehicle: Klucel (hydroxypropylcellulose) (HPC)): 100 % of control
- T/C (dose: 240.0 mg/kg/injection, schedule: Q01DX005 (ip), vehicle: Klucel (hydroxypropylcellulose) (HPC)): 103 % of control

Structure (SMILES): C1CN2CCN1CC2
- T/C (dose: 50.0 mg/kg/injection, schedule: Q01DX009 (ip), vehicle: saline): 99 % of control and 105 % of control
- T/C (dose: 100.0 mg/kg/injection, schedule: Q01DX009 (ip), vehicle: saline): 94 % of control and 108 % of control
- T/C (dose: 200.0 mg/kg/injection, schedule: Q01DX009 (ip), vehicle: saline): 103 % of control and 99 % of control

Structure (SMILES): O=NNc1ccc(I)cn1
- T/C (dose: 6.25 mg/kg/injection, schedule: Q01DX009 (ip), vehicle: water): 170 % of control
- T/C (dose: 12.5 mg/kg/injection, schedule: Q01DX009 (ip), vehicle: water): 173 % of control and 190 % of control

Structure (SMILES): CCCCCCOC(=O)C(N)Cc1ccc(N(CCCl)CCCl)cc1 (configuration not stated)
- T/C (dose: 1.28 mg/kg/injection, schedule: Q01DX009 (ip), vehicle: saline): 245 % of control
- T/C (dose: 2.55 mg/kg/injection, schedule: Q01DX009 (ip), vehicle: saline): 322 % of control
- T/C (dose: 3.2 mg/kg/injection, schedule: Q03HX008 (ip), vehicle: saline): 165 % of control
- T/C (dose: 5.1 mg/kg/injection, schedule: Q01DX009 (ip), vehicle: saline): 118 % of control
- T/C (dose: 6.4 mg/kg/injection, schedule: Q03HX008 (ip), vehicle: saline): 180 % of control
- T/C (dose: 10.2 mg/kg/injection, schedule: Q01DX009 (ip), vehicle: saline): 86 % of control
- T/C (dose: 12.8 mg/kg/injection, schedule: Q03HX008 (ip), vehicle: saline): 295 % of control
- T/C (dose: 25.5 mg/kg/injection, schedule: Q03HX008 (ip), vehicle: saline): 600 % of control
- T/C (dose: 51.0 mg/kg/injection, schedule: Q03HX008 (ip), vehicle: saline): 600 % of control

Structure (SMILES): COc1cc(C[C@H]2[C@H]([C@H](O)c3ccc4c(c3)OCO4)C(=O)O[C@@H]2CO)cc(OC)c1OC
- T/C (dose: 5.0 mg/kg/injection, schedule: Q04DX002 (ip), vehicle: saline with Tween-80): 105 % of control
- T/C (dose: 10.0 mg/kg/injection, schedule: Q04DX002 (ip), vehicle: saline with Tween-80): 102 % of control
- T/C (dose: 20.0 mg/kg/injection, schedule: Q04DX002 (ip), vehicle: saline with Tween-80): 102 % of control

Structure (SMILES): C(=N/OC(c1ccccc1)(c1ccccc1)c1ccccc1)/c1ccccc1
- T/C (dose: 25.0 mg/kg/injection, schedule: Q04DX003 (ip), vehicle: saline): 104 % of control
- T/C (dose: 75.0 mg/kg/injection, schedule: Q04DX003 (ip), vehicle: saline): 100 % of control
- T/C (dose: 150.0 mg/kg/injection, schedule: Q04DX003 (ip), vehicle: saline): 95 % of control

Structure (SMILES): Cc1ccc2ncccc2c1
- T/C (dose: 50.0 mg/kg/injection, schedule: Q04DX003 (ip), vehicle: saline with Tween-80): 102 % of control
- T/C (dose: 100.0 mg/kg/injection, schedule: Q04DX003 (ip), vehicle: saline with Tween-80): 101 % of control
- T/C (dose: 200.0 mg/kg/injection, schedule: Q04DX003 (ip), vehicle: saline with Tween-80): 98 % of control

Source: PubChem BioAssay AID330 (DTP/NCI, 2004)
